Target: Axl (Homo sapiens (Human), UniProt P30530)
Test: Phospho-Akt in-cell Western assay (Axl-antibody cross-linking stimulation)
Type: cell-based
Conditions: inhibition of Axl activity
Experimental: The working solution: dilute the stock 1:20 with PBS immediately before use. • 10% SDS: working solution: 5% SDS (sodium dodecylsulfate), diluted in PBS Methods: Day 1:
A 96 well TC (tissue culture treated) plate was coated with 10 μg/mL poly-L-Lysine at 37° C. for 30 min, washed twice with PBS, and air-dried for 5 minutes before cells were added. Hela cells were seeded at 10,000 cells/well and the cells were starved in 100 μL starvation medium containing Axl/Fc for 24 hrs.
The cells were pre-treated with test compounds by adding 100 μL of 2× test compound to the starvation medium on the cells. The cells were incubated at 37° C. for 1 hr before stimulation.
The resulting mix was warmed to 37° C. 50 μL of 5× Axl 1st/2nd of antibody cluster was added to the cells and the cells were incubated at 37° C. for 5 min.
After 5 minutes stimulation, the plate was flicked to remove medium and the plate was tapped onto paper towels. Formaldehyde (4.0% in PBS, 100 μL) was added to fix the cells and the cells were incubated at ambient temperature for 20 min without shaking.
The cells were washed with a plate washer buffer to remove the formaldehyde solution. The plate was flicked to removed excess wash buffer and tapped onto paper towels. Quenching buffer (100 μL) was added to each well and the cells were incubated at ambient temperature for 20 minutes without shaking.
The cells were washed with a plate washer buffer to remove the quenching buffer. Blocking buffer (100 μL) was added and the cells were incubated at ambient temperature for at least an hour with gentle shaking.
The cells were washed with a plate washer buffer and diluted primary antibody (50 μL) was added to each well (blocking buffer was added to the negative control wells instead). The plates were incubated overnight at 4° C. with gentle shaking.
The wash buffer was removed, diluted secondary antibody (100 μL) was added, and the cells were incubated at ambient temperature for 1 hour with gentle shaking. During the incubation, the chemiluminescent reagent was brought to ambient temperature.
The secondary antibody was removed by washing the cells 1× with wash buffer, 1× with PBS by plate washer. The PBS was removed from the plate and the chemiluminescent reagent (80 μL: 40 μL A and 40 μL B) was added to each well at ambient temperature.
The resulting chemiluminescence was read with a Luminomitor within 10 minutes to minimize changes in signal intensity. […] The plate was tapped onto paper towels to remove excess liquid from wells and air-dried at ambient temperature for 5 minutes.
Crystal Violet working solution (60 μL) was added to each well and the cells were incubated at ambient temperature for 30 min. The crystal violet solution was removed, and the wells were rinsed with PBS, then washed 3× with PBS (200 μL) for 5 minutes each.
5% SDS solution (70 μL) was added to each well and the cells were incubated on a shaker for 30 min at ambient temperature.
This relative cell number was then used to normalize each luminescence reading. […]

[1] = Hela cells, phospho-Akt readout, Table 1, formula (Ia1)

Sequence of Axl (P30530 26-894): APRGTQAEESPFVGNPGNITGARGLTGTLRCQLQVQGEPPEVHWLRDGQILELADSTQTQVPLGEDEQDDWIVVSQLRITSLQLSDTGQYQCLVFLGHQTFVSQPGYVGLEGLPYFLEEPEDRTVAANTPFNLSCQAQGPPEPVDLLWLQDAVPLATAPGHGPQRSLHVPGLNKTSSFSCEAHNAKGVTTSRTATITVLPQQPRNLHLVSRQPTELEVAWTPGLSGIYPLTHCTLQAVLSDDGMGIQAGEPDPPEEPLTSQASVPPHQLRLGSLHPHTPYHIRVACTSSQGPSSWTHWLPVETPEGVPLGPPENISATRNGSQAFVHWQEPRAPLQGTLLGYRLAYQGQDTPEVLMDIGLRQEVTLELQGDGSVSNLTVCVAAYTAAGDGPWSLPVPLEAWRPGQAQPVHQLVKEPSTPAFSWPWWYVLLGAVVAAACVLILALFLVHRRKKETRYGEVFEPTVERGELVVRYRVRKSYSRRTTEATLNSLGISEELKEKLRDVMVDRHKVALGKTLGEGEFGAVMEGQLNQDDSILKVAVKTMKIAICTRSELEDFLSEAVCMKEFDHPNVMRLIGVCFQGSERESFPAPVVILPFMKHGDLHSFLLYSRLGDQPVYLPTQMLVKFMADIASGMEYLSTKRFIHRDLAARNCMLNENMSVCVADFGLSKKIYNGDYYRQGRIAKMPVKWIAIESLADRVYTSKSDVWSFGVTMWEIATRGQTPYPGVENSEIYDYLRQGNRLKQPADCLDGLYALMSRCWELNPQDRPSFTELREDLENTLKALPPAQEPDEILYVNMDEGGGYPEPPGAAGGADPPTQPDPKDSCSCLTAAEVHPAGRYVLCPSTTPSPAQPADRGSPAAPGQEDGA

Q: How did the IC50 (phospho-Akt in-cell Western assay) turn out when `COc1cc2cnc(-n3nc(Nc4ccc(N5CCN([C@H]6C[C@@H]7CC[C@H]6C7)CC5)cc4)nc3N)nc2cc1OC` (racemic) [Compound 182, 1-(6,7-dimethoxyquinazolin-2-yl)-N^3-(4-(4-((1S,2S,4R)-bicyclo[2.2.1]heptan-2-yl)-piperazin-1-yl)phenyl)-1H-1,2,4-triazole-3,5-diamine] was run?
A: > 20 µM

Q: Which IC50 [1] does the source give for `Nc1nc(Nc2ccc(OCCN3CCCCC3)cc2)nn1-c1ccccc1` [Compound 1, 1-phneyl-N^3-(4-(2-(piperidin-1-yl)ethoxy)phenyl)-1H-1,2,4-triazole-3,5-diamine] here?
A: > 20 µM

Q: For `Nc1nc(Nc2ccc(OCCN3CCCC3)c(Cl)c2)nn1-c1ccccn1` [Compound 4, N^3-(3-chloro-4-(2-(pyrrolidin-1-yl)ethoxy)phenyl)-1-(pyridin-2-yl)-1H-1,2,4-triazole-3,5-diamine], which IC50 [1] is on record?
A: < 1 µM

Q: For `CNc1nc(Nc2ccc(OCCN3CCCC3)cc2)nn1-c1ccccn1` [Compound 6, N^5-methyl-1-(pyridin-2-yl)-N^3-(4-(2-(pyrrolidin-1-yl)ethoxy)phenyl)-1H-1,2,4-triazole-3,5-diamine], which IC50 [1] is on record?
A: > 20 µM

Q: Which IC50 [1] does the source give for `Nc1nc(Nc2ccc(OCCN3CCCC3)cc2)nn1-c1ccc(S(N)(=O)=O)cc1` [Compound 8, 4-(5-amino-3-(4-(2-(pyrrolidin-1-yl)ethoxy)phenylamino)-1H-1,2,4-triazol-1-yl)benzenesulfonamide] here?
A: > 20 µM

Q: Which IC50 [1] does the source give for `Nc1nc(Nc2ccc(OCCN3CCCC3)cc2)nn1-c1cnc2ccccc2n1` [Compound 9, N^3-(4-(2-(pyrrolidin-1-yl)ethoxy)phenyl)-1-(quinoxalin-2-yl)-1H-1,2,4-triazole-3,5-diamine] here?
A: < 1 µM

Q: How did the IC50 [1] turn out when `Nc1nc(Nc2ccc(OCCN3CCCCC3)cc2)nn1-c1ccnc(Cl)c1` [Compound 10, 1-(2-chloropyridin-4-yl)-N^3-(4-(2-(piperidin-1-yl)ethoxy)phenyl)-1H-1,2,4-triazole-3,5-diamine] was run?
A: > 20 µM

Q: For `Nc1nc(Nc2ccc(OCCN3CCCC3)cc2)nn1-c1nc2ccccc2s1` [Compound 11, 1-(benzo[d]thiazol-2-yl)-N^3-(4-(2-(pyrrolidin-1-yl)ethoxy)phenyl)-1H-1,2,4-triazole-3,5-diamine], which IC50 [1] is on record?
A: > 20 µM

Q: How did the IC50 [1] turn out when `Nc1nc(Nc2ccc(OCCN3CCCC3)cc2)nn1-c1cnccn1` [Compound 13, 1-(pyrazin-2-yl)-N^3-(4-(2-(pyrrolidin-1-yl)ethoxy)phenyl)-1H-1,2,4-triazole-3,5-diamine] was run?
A: 1 to 10 µM

Q: For `Cn1c(-n2nc(Nc3ccc(OCCN4CCCC4)cc3)nc2N)nc2ccccc21` [Compound 14, 1-(1-methyl-1H-benzo[d]imidazol-2-yl)-N^3-(4-(2-(pyrrolidin-1-yl)ethoxy)phenyl)-1H-1,2,4-triazole-3,5-diamine], which IC50 [1] is on record?
A: > 20 µM

Q: For `Nc1nc(Nc2ccc(OCCN3CCCCC3)cc2)nn1-c1ccnc(N2CCOCC2)c1` [Compound 15, 1-(2-morpholinopyridin-4-yl)-N^3-(4-(2-(piperidin-1-yl)ethoxy)phenyl)-1H-1,2,4-triazole-3,5-diamine], which IC50 [1] is on record?
A: > 20 µM

Q: How did the IC50 [1] turn out when `Nc1nc(Nc2ccc(OCCN3CCCC3)cc2)nn1-c1cccc(Cl)n1` [Compound 16, 1-(6-chloropyridin-2-yl)-N^3-(4-(2-(pyrrolidin-1-yl)ethoxy)phenyl)-1H-1,2,4-triazole-3,5-diamine] was run?
A: 1 to 10 µM

Q: How did the IC50 [1] turn out when `Nc1nc(Nc2ccc(OCCN3CCCC3)cc2)nn1-c1ccc(Cl)cn1` [Compound 17, 1-(5-chloropyridin-2-yl)-N^3-(4-(2-(pyrrolidin-1-yl)ethoxy)phenyl)-1H-1,2,4-triazole-3,5-diamine] was run?
A: 1 to 10 µM

Q: Which IC50 [1] does the source give for `Nc1nc(Nc2ccc(OCCN3CCCC3)cc2)nn1-c1ncccc1Cl` [Compound 18, 1-(3-chloropyridin-2-yl)-N^3-(4-(2-(pyrrolidin-1-yl)ethoxy)phenyl)-1H-1,2,4-triazole-3,5-diamine] here?
A: > 20 µM

Q: With `Nc1nc(Nc2ccc(OCCN3CCCCC3)cc2)nn1-c1cccc(Cl)n1` [Compound 19, 1-(6-chloropyridin-2-yl)-N^3-(4-(2-(piperidin-1-yl)ethoxy)phenyl)-1H-1,2,4-triazole-3,5-diamine] as the molecule, how does the IC50 [1] read?
A: < 1 µM

Q: For `Nc1nc(Nc2ccc(OCCN3CCCCC3)cc2)nn1-c1cccc(N2CCOCC2)n1` [Compound 20, 1-(6-morpholinopyridin-2-yl)-N^3-(4-(2-(piperidin-1-yl)ethoxy)phenyl)-1H-1,2,4-triazole-3,5-diamine], which IC50 [1] is on record?
A: 10 to 20 µM

Q: `CC1CCCN1CCOc1ccc(Nc2nc(N)n(-c3cnc4ccccc4n3)n2)cc1` (stereo not shown) [Compound 21, N^3-(4-(2-(2-methylpyrrolidin-1-yl)ethoxy)phenyl)-1-(quinoxalin-2-yl)-1H-1,2,4-triazole-3,5-diamine] was tested. Which IC50 [1] did it give?
A: < 1 µM

Q: `CC1CCCN1CCOc1ccc(Nc2nc(N)n(-c3nc4ccccc4s3)n2)cc1` (stereo not shown) [Compound 22, 1-(benzo[d]thiazol-2-yl)-N^3-(4-(2-(2-methylpyrrolidin-1-yl)ethoxy)phenyl)-1H-1,2,4-triazole-3,5-diamine] was tested. Which IC50 [1] did it give?
A: > 20 µM

Q: How did the IC50 [1] turn out when `CC1CCCN1CCOc1ccc(Nc2nc(N)n(-c3nc4ccccc4n3C)n2)cc1` (stereo not shown) [Compound 23, 1-(1-methyl-1H-benzo[d]imidazol-2-yl)-N^3-(4-(2-(2-methylpyrrolidin-1-yl)ethoxy)phenyl)-1H-1,2,4-triazole-3,5-diamine] was run?
A: > 20 µM

Q: With `CC1CCCN1CCOc1ccc(Nc2nc(N)n(-c3nc4ccccc4[nH]3)n2)cc1` (stereo not shown) [Compound 24, 1-(1H-benzo[d]imidazol-2-yl)-N^3-(4-(2-(2-methylpyrrolidin-1-yl)ethoxy)phenyl)-1H-1,2,4-triazole-3,5-diamine] as the molecule, how does the IC50 [1] read?
A: > 20 µM

Q: With `Nc1nc(Nc2ccc(OCCN3CCCC3)cc2)nn1-c1nncc2ccccc12` [Compound 25, 1-(phthalazin-1-yl)-N^3-(4-(2-(pyrrolidin-1-yl)ethoxy)phenyl)-1H-1,2,4-triazole-3,5-diamine] as the molecule, how does the IC50 [1] read?
A: < 1 µM

Q: For `Nc1nc(Nc2ccc(OCCN3CCCC3)cc2)nn1-c1cc(C(F)(F)F)ccn1` [Compound 26, N^3-(4-(2-(pyrrolidin-1-yl)ethoxy)phenyl)-1-(4-(trifluoromethyl)pyridin-2-yl)-1H-1,2,4-triazole-3,5-diamine], which IC50 [1] is on record?
A: < 1 µM

Q: `CC1CCCN1CCOc1ccc(Nc2nc(N)n(-c3ccccc3F)n2)cc1` (stereo not shown) [Compound 27, 1-(2-fluorophenyl)-N^3-(4-(2-(2-methylpyrrolidin-1-yl)ethoxy)phenyl)-1H-1,2,4-triazole-3,5-diamine] was tested. Which IC50 [1] did it give?
A: > 20 µM

Q: `Nc1nc(Nc2ccc(OCCN3CCCCC3)cc2)nn1-c1ccccc1F` [Compound 28, 1-(2-fluorophenyl)-N^3-(4-(2-(piperidin-1-yl)ethoxy)phenyl)-1H-1,2,4-triazole-3,5-diamine] was tested. Which IC50 [1] did it give?
A: > 20 µM

Q: With `Nc1nc(Nc2ccc(OCCN3CCCC3)cc2)nn1-c1ncccc1C(F)(F)F` [Compound 29, N^3-(4-(2-(pyrrolidin-1-yl)ethoxy)phenyl)-1-(3-(trifluoromethyl)pyridin-2-yl)-1H-1,2,4-triazole-3,5-diamine] as the molecule, how does the IC50 [1] read?
A: 1 to 10 µM

Q: `COc1cccc(-n2nc(Nc3ccc(OCCN4CCCC4)cc3)nc2N)n1` [Compound 30, 1-(6-methoxypyridin-2-yl)-N^3-(4-(2-(pyrrolidin-1-yl)ethoxy)phenyl)-1H-1,2,4-triazole-3,5-diamine] was tested. Which IC50 [1] did it give?
A: 1 to 10 µM

Q: For `Nc1nc(Nc2ccc(OCCN3CCCC3)cc2)nn1-c1nc2ccccc2[nH]1` [Compound 31, 1-(1H-benzo[d]imidazol-2-yl)-N^3-(4-(2-(pyrrolidin-1-yl)ethoxy)phenyl)-1H-1,2,4-triazole-3,5-diamine], which IC50 [1] is on record?
A: > 20 µM

Q: `Nc1nc(Nc2ccc(OCCN3CCCC3)cc2)nn1-c1ccc(Br)cn1` [Compound 32, 1-(5-bromopyridin-2-yl)-N^3-(4-(2-(pyrrolidin-1-yl)ethoxy)phenyl)-1H-1,2,4-triazole-3,5-diamine] was tested. Which IC50 [1] did it give?
A: > 20 µM

Q: With `COC(=O)C1CCCN1CCOc1ccc(Nc2nc(N)n(-c3cnc4ccccc4n3)n2)cc1` (stereo not shown) [Compound 33, methyl 1-(2-(4-(5-amino-1-(quinoxalin-2-yl)-1H-1,2,4-triazol-3-ylamino)phenoxy)ethyl)-pyrrolidine-2-carboxylate] as the molecule, how does the IC50 [1] read?
A: 1 to 10 µM

Q: Which IC50 [1] does the source give for `Nc1nc(Nc2ccc(OCCN3CCCC3)cc2)nn1-c1ccccc1F` [Compound 34, 1-(2-fluorophenyl)-N^3-(4-(2-(pyrrolidin-1-yl)ethoxy)phenyl)-1H-1,2,4-triazole-3,5-diamine] here?
A: > 20 µM

Q: Which IC50 [1] does the source give for `CNc1cccc(-n2nc(Nc3ccc(OCCN4CCCCC4)cc3)nc2N)n1` [Compound 35, 1-(6-(methylamino)pyridin-2-yl)-N^3-(4-(2-(piperidin-1-yl)ethoxy)phenyl)-1H-1,2,4-triazole-3,5-diamine] here?
A: 1 to 10 µM

Source: patent publication US10166216B2 (Rigel Pharmaceuticals, Inc., priority 2006, dated 2019)
